Reference: patent US7605272B2, “IGF-1R inhibitor” (Kyowa Hakko Kirin Co., Ltd., priority 2005, dated 2009)
Counter-ions that a name gives are not always drawn. Like-named read-outs stand apart in the source and are kept apart here.

Tests used:
IGF-1R = target: T1, IGF-1R (Homo sapiens, UniProt P08069); experiment: IGF-1R inhibitory activity (kinase reaction, time-resolved fluoroimmunoassay); assay type: biochemical; settings: IGF-1R active recombinant enzyme, test compound 10 μmol/L
T1 construct: purchased Upstate Co. 14-465
T1 sequence (P08069 959-1367 limits assumed): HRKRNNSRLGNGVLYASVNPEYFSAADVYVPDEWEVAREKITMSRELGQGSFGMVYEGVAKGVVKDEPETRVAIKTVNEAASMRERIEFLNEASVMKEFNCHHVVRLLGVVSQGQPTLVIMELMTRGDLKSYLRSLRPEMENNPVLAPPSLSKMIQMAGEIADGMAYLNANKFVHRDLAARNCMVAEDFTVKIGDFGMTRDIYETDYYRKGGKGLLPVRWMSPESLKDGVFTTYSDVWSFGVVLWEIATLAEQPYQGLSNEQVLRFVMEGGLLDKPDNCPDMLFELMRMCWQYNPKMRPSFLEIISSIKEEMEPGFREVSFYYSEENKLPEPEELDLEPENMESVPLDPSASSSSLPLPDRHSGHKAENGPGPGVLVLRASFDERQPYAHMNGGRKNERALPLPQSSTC
Procedure, shortened: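 Compounds were tested at a single 10 μmol/L concentration. Each was incubated with recombinant IGF-1R (200 μg/L), 10 mmol/L ATP, MgCl2/MnCl2 and Na3VO4 (pH 7.5) on immobilized poly(Glu-Tyr) peptide for 30 min at 24° C. Eu-anti-phosphotyrosine time-resolved fluorescence (340/615 nm) gave relative activity against no-compound and no-enzyme wells, reported as % inhibition.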

NCI-H929 = experiment: Cytostatic activity on human multiple myeloma cell line NCI-H929 (WST-1); assay type: cell-based; settings: for inhibition at 1 µM / inhibition at 10 µM: Homo sapiens, NCI-H929, 72 h; for inhibition at 1 µM: read-out: cytostatic rate (%) H929 (1 μmol/L); for inhibition at 10 µM: 10 μmol/L, read-out: cytostatic rate (%) H929 (10 μmol/L)
Procedure, shortened: (§1)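 Cells pre-cultured 24 h at 37 °C, 5% CO2, then exposed 72 h to compound at final 1 or 10 μmol/L (0.1% DMSO). WST-1 added for 2 h, absorbance at 450 nm (ref 690 nm). Cytostatic rate = 100 minus relative growth, with DMSO control as 100% and blank as 0%.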

KMS-11 = experiment: Cytostatic activity on human multiple myeloma cell line KMS-11 (WST-1); assay type: cell-based; settings: for inhibition at 1 µM / inhibition at 10 µM: Homo sapiens, KMS-11, 72 h; for inhibition at 1 µM: read-out: cytostatic rate (%) KMS-11 (1 μmol/L); for inhibition at 10 µM: 10 μmol/L, read-out: cytostatic rate (%) KMS-11 (10 μmol/L)
Procedure, shortened: as §1

[1] = NCI-H929 cells, test compound 1 μmol/L, WST-1
[2] = KMS-11 cells, test compound 1 μmol/L, WST-1

Row | SMILES | inhibition at 10 µM (IGF-1R) | inhibition at 1 µM (NCI-H929; 1 μmol/L, 72 hours) | inhibition at 1 µM (KMS-11; 1 μmol/L, 72 hours) | also measured
1 | CC(=O)N1CCC(NC(=O)c2ccc(/C=C/c3n[nH]c4ccccc34)c(NC(=O)c3sccc3C)c2)CC1 [Compound 303, (E)-N-{5-[N-(1-acetylpiperidin-4-yl)carbamoyl]-2-[2-(1H-indazol-3-yl)vinyl]phenyl}-3-methylthiophene-2-carboxamide] | 100% | 115% | 106% | 
2 | Cc1ccsc1C(=O)Nc1cc(C(=O)N2CC[C@@H](O)C2)ccc1/C=C/c1n[nH]c2ccccc12 [Compound 220, (E)-(R)—N-{2-[2-(1H-indazol-3-yl)vinyl]-5-(3-hydroxypyrrolidin-1-ylcarbonyl)phenyl}-3-methylthiophene-2-carboxamide hydrochloride] | 99.3% | 110% | 97.9% | 
3 | COc1c(OC(=O)CC(=O)N2CC[C@@H](O)C2)ccc(/C=C/c2n[nH]c3ccccc23)c1NC(=O)c1sccc1C [Compound 343, (E)-N—(R)-{6-[2-(1H-indazol-3-yl)vinyl]-2-methoxy-3-[(3-hydroxypyrrolidine-1-ylcarbonyl)acetyloxy]phenyl}-3-methylthiophene-2-carboxamide] |  |  |  | inhibitory activity (%) at 10 μmol/L (IGF-1R): 98.4%; cytostatic rate (%) H929 (1 μmol/L) (NCI-H929; [1]): 127.5%; cytostatic rate (%) KMS-11 (1 μmol/L) (KMS-11; [2]): 79%
4 | COCCN(CCN1CCOCC1)c1ccc(NC(=O)c2sccc2C)c(/C=C/c2n[nH]c3ccccc23)c1 [Compound 238, (E)-N-{2-[2-(1H-indazol-3-yl)vinyl]-4-[N-(2-methoxyethyl)-2-(morpholin-4-yl)ethylamino]phenyl}-3-methylthiophene-2-carboxamide] | 97.1% | 126% | 132% | 
5 | COc1c(OCC(=O)N2CCOCC2)ccc(/C=C/c2n[nH]c3ccccc23)c1NC(=O)c1sccc1C [Compound 335, (E)-N-{6-[2-(1H-indazol-3-yl)vinyl]-2-methoxy-3-(2-morpholin-4-yl-2-oxoethoxy)phenyl}-3-methylthiophene-2-carboxamide] | 102% |  |  | inhibition at 1 µM (NCI-H929; [1]): 117%; inhibition at 1 µM (KMS-11; [2]): 110%
6 | NC(=S)Nc1ccccc1/C=C/c1n[nH]c2ccccc12 [Compound 161, (E)-N-{2-[2-(1H-indazol-3-yl)vinyl]phenyl}thiourea] | 95.9% |  |  | inhibition at 10 µM (NCI-H929; 72 hours): 113%; inhibition at 10 µM (KMS-11; 72 hours): 92.8%
7 | O=C(Nc1ccccc1/C=C/c1n[nH]c2ccccc12)c1ccccn1 [Compound 12, (E)-N-{2-[2-(1H-indazol-3-yl)vinyl]phenyl}pyridine-2-carboxamide] | 96.1% |  |  | inhibition at 10 µM (NCI-H929; 72 hours): 118%; inhibition at 10 µM (KMS-11; 72 hours): 120%
8 | Nc1cccc2c1C(=O)N(c1ccc(F)cc1/C=C/c1n[nH]c3ccccc13)C2=O [Compound 254, (E)-4-amino-2-{4-fluoro-2-[2-(1H-indazol-3-yl)vinyl]phenyl}isoindole-1,3-dione] | 99.5% | 116% | 81.2% | 
9 | O=C(Nc1ccccc1)c1ccccc1/C=C/c1n[nH]c2ccccc12 [Compound 47, (E)-N-phenyl-2-[2-(1H-indazol-3-yl)vinyl]benzamide] | 90.1% |  |  | inhibition at 10 µM (NCI-H929; 72 hours): 100%; inhibition at 10 µM (KMS-11; 72 hours): 92.1%
10 | CON(C)C(=O)c1ccc(/C=C/c2n[nH]c3ccccc23)c(NC(=O)c2sccc2C)c1 [Compound 320, (E)-{2-[2-(1H-indazol-3-yl)vinyl]-5-(N-methoxy N-methylcarbamoyl)phenyl}-3-methyl-2-carboxamide] |  |  |  | inhibitory activity (%) at 10 μmol/L (IGF-1R): 102.1%; cytostatic rate (%) H929 (1 μmol/L) (NCI-H929; [1]): 122.8%; cytostatic rate (%) KMS-11 (1 μmol/L) (KMS-11; [2]): 112.1%
11 | Cc1ccsc1C(=O)Nc1cc(CN2CCN(C[C@H](O)CO)CC2)ccc1/C=C/c1n[nH]c2ccccc12 [Compound 302, (E)-(S)—N-{5-[4-(2,3-dihydroxypropyl)piperazin-1-ylmethyl]-2-[2-(1H-indazol-3-yl)vinyl]phenyl}-3-methylthiophene-2-carboxamide] | 101% | 115% | 99.4% | 
